Data: PMC12888856 (Antimicrobial Agents and Chemotherapy, 2025)
Where “and” joins values, the source holds several entries; their conditions need not be identical. Equal entries are not always repeated. Where two headings read alike, the source gives them in different places.

What was measured:
[1] = tested on: A/Puerto Rico/8/1934 (H1N1); assay: microbe, parasite or virus in culture; format: cell-based, Influenza A virus
A/Weiss/1943 (H1N1) = assay: microbe, parasite or virus in culture; format: cell-based, Influenza A virus
[2] = tested on: A/Hong Kong/8/1968 (H3N2); assay: microbe, parasite or virus in culture; format: cell-based, Influenza A virus
A/Malaya/302/1954 (H1N1) = assay: microbe, parasite or virus in culture; format: cell-based, Influenza A virus
[3] = tested on: A/Puerto Rico/8/1934 (H1N1); design: species or system BALB/c mice; details: mouse, in vivo
[4] = tested on: IAV H1N1 and H3N2 isolates; assay: microbe, parasite or virus in culture; format: cell-based, Influenza A virus
[5] = tested on: A/Puerto Rico/8/1934 (H1N1); design: species or system BALB/c mice; details: mouse, in vivo; remark: listed apart in the source
B/Florida/78/2015 = assay: microbe, parasite or virus in culture; format: cell-based; details: Influenza B virus, MDCK
[6] = tested on: A/New York/18/2009 (H1N1); assay: microbe, parasite or virus in culture; format: cell-based; details: Influenza A virus, H1N1, MDCK
[7] = tested on: A/Puerto Rico/8/1934 (H1N1); details: mouse, in vivo; cited from earlier work
[8] = tested on: A/California/2/2014 (H3N2); assay: microbe, parasite or virus in culture; format: cell-based; details: Influenza A virus, H3N2, MDCK
[9] = tested on: A/California/07/2009 (H1N1); assay: microbe, parasite or virus in culture; format: cell-based; details: Influenza A virus, H1N1, MDCK
A/Perth/16/2009 (H3N2) = assay: microbe, parasite or virus in culture; format: cell-based; details: Influenza A virus, H3N2, MDCK
[10] = cited from earlier work
A/WSN/1933 (H1N1) = assay: microbe, parasite or virus in culture; format: cell-based; details: Influenza A virus, MDCK
B/Lee/1940 = assay: microbe, parasite or virus in culture; format: cell-based; details: Influenza B virus, MDCK
[11] = tested on: A/Hong Kong/213/2003 (H5N1); assay: microbe, parasite or virus in culture; format: cell-based; details: Influenza A virus, H5N1, MDCK
[12] = tested on: A/Mexico/4108/2009 (H1N1); assay: microbe, parasite or virus in culture; format: cell-based; details: Influenza A virus, H1N1, MDCK
[13] = tested on: A/Michigan/45/2015 (H1N1); assay: microbe, parasite or virus in culture; format: cell-based; details: Influenza A virus, H1N1, MDCK
A/Kansas/14/2017 (H3N2) = assay: microbe, parasite or virus in culture; format: cell-based; details: Influenza A virus, H3N2, MDCK
A549 cells = details: human
A/Taiwan/1/2017 (H7N9) = assay: microbe, parasite or virus in culture; format: cell-based; details: Influenza A virus, H7N9, MDCK
HepG2 cells = details: human
[14] = tested on: A/Vietnam/1203/2004 (H5N1); assay: microbe, parasite or virus in culture; format: cell-based; details: Influenza A virus, H5N1, MDCK
[15] = tested on: A/Switzerland/971593/2013 (H3N2); assay: microbe, parasite or virus in culture; format: cell-based; details: Influenza A virus, H3N2, MDCK
[16] = tested on: A/Wilson-Smith/1933 (H1N1); assay: microbe, parasite or virus in culture; format: cell-based; details: Influenza A virus, H1N1, MDCK
A/Anhui/1/2013 (H7N9) = assay: microbe, parasite or virus in culture; format: cell-based; details: Influenza A virus, H7N9, MDCK
[17] = mouse, in vivo; cited from earlier work
in vitro [18] = details: human
in vitro [19] = details: dog
[20] = tested on: A/Brisbane/05/2018 (H1N1); assay: microbe, parasite or virus in culture; format: cell-based; details: Influenza A virus, H1N1, MDCK
[21] = tested on: A/Hong Kong/4801/2014 (H3N2); assay: microbe, parasite or virus in culture; format: cell-based; details: Influenza A virus, H3N2, MDCK
[22] = tested on: A/cattle/Texas/56283/2024 (H5N1); assay: microbe, parasite or virus in culture; format: cell-based; details: Influenza A virus, H5N1, MDCK
[23] = Balb/c, mouse, in vivo
[24] = tested on: HPAI H5N1 and H7N9 isolates; assay: microbe, parasite or virus in culture; format: cell-based; details: Influenza A virus, MDCK, read-out: EC50 values, range over isolates

For O=C1c2c(O)c(=O)ccn2N([C@@H]2c3ccccc3SCc3c2ccc(F)c3F)[C@@H]2COCCN12 [Baloxavir, baloxavir, reference compound], the EC50 ([1]; Influenza A virus, H1N1, MDCK) was 0.57 nM, the EC50 (A/Weiss/1943 (H1N1); Influenza A virus, H1N1, MDCK) was 0.4 nM and the EC50 ([2]; read-out: EC50) was 0.68 nM.

In the case of CCOC(=O)C1=C[C@@H](OC(CC)CC)[C@H](NC(C)=O)[C@@H](N)C1 [Oseltamivir, oseltamivir, reference compound], the Fold shift (A/Malaya/302/1954 (H1N1)) is reported as 1.19, the Lung viral load [3] is reported as “comparable to the vehicle control” and the EC50 ([1]; Influenza A virus, H1N1, MDCK) is reported as 970 nM. For the same compound, the “shift in EC50 values relative to reference strain” value [4] was under 2 fold, the EC50 (A/Weiss/1943 (H1N1); Influenza A virus, H1N1, MDCK) was 1050 nM and the Fold shift [2] was 0.09. The EC50 ([2]; read-out: EC50) was 90 nM and the “body weight loss leading to euthanasia” value [5] was over 25%.

With COC[C@@]1(C)COC[C@@H](COc2ccc(-c3cc(C(N)=O)c(O)nc3C(F)(F)F)cc2)O1 [VNT-101] the EC50 (B/Florida/78/2015) was 43700 nM, the EC90 (B/Florida/78/2015) was over 50000 nM and the EC50 [6] was 1.85 nM. For the same compound, the EC90 [6] was 5.12 nM, the “protection from lethality, prophylaxis” value [7] was “protected mice from lethality” and the EC50 (A/Malaya/302/1954 (H1N1); Influenza A virus, H1N1, MDCK) was over 50000 nM. For the same compound, the EC90 (A/Malaya/302/1954 (H1N1); Influenza A virus, H1N1, MDCK) was over 50000 nM, the EC50 [8] was 2.2 nM and the EC90 [8] was 3.41 nM. For the same compound, the EC50 [9] was 8.39 nM, the EC90 [9] was 19.2 nM and the EC50 (A/Perth/16/2009 (H3N2)) was 4.05 nM. For the same compound, the EC90 (A/Perth/16/2009 (H3N2)) was 5.68 nM, the “percent plasma protein binding” value [10] was 97.1% and the EC50 (A/WSN/1933 (H1N1)) was 115 nM. For the same compound, the EC90 (A/WSN/1933 (H1N1)) was 191 nM, the EC50 (B/Lee/1940) was over 47500 nM and the EC90 (B/Lee/1940) was over 50000 nM. For the same compound, the EC50 [11] was 19 nM, the EC50 [12] was 14.4 nM and the EC90 [12] was 112 nM. It also gave an EC50 [13] of 17.7 nM, an EC90 [13] of 29.4 nM and an EC50 (A/Kansas/14/2017 (H3N2)) of 3.14 nM. For the same compound, the EC90 (A/Kansas/14/2017 (H3N2)) was 18 nM, the CC50 (A549 cells) was over 100000 nM and the EC50 (A/Taiwan/1/2017 (H7N9)) was 69 nM. The CC50 (HepG2 cells) was over 100000 nM, the EC50 [1] was 2.1 nM and 2 nM and the EC50 ([1]; Influenza A virus, H1N1, MDCK) was 2.08 nM. The EC90 ([1]; Influenza A virus, H1N1, MDCK) was 3.22 nM, the EC50 ([1]; Influenza A virus, H1N1, MDCK, read-out: mean EC50) was 5 nM and the EC50 [14] was 25 nM. It also gave an EC50 ([4]; Influenza A virus, MDCK, read-out: mean EC50 values, range over isolates) of 2 to 18 nM, an EC50 [15] of 2.19 nM and an EC90 [15] of 3.32 nM. It also gave an EC50 [16] of 26.3 nM, an EC90 [16] of 50.6 nM and an EC50 (A/Anhui/1/2013 (H7N9)) of 24 nM. The Cmin [17] was 3.49 ± 1.35 µM, the CC50 (in vitro [18]; Proliferating condition CC50) was 72800 nM and the CC50 (in vitro [18]; Stationary condition CC50 (mean)) was over 80400 nM. The CC50 (in vitro [18]; Stationary condition CC50, individual runs) was over 100000 nM, the CC50 (in vitro [19]) was over 100000 nM and the EC50 (A/Weiss/1943 (H1N1)) was 123 nM. It also gave an EC50 (A/Weiss/1943 (H1N1); Influenza A virus, H1N1, MDCK) of 123 nM, an EC90 (A/Weiss/1943 (H1N1); Influenza A virus, H1N1, MDCK) of 210 nM and an EC50 ([2]; Influenza A virus, H3N2, MDCK) of over 50000 nM. It also gave an EC90 ([2]; Influenza A virus, H3N2, MDCK) of over 50000 nM, an EC50 ([2]; read-out: EC50) of over 50000 nM and an EC50 [20] of 6.55 nM. For the same compound, the EC90 [20] was 11.2 nM, the EC50 [21] was 2.59 nM and the EC90 [21] was 3.71 nM. For the same compound, the EC50 [22] was 65 nM, the fAUC [23] was 3.045 µM·h and the fCmin [23] was 0.10 µM. For the same compound, the EC50 [24] was 19 to 69 nM, the “final mean body weight loss” value [5] was 21.1% and the “maximum mean body weight loss” value [5] was 24.4%. The “maximum mean body weight loss” value ([5]; 30 mg/kg) was 13.6% and 25.1% and the Survival ([5]; po, 100 mg/kg) was 33%.
